This note sets out measurements from PMC8424300, “Identification of novel microtubule inhibitors effective in fission yeast and human cells and their effects on breast cancer cell lines” (Open Biology, 2021).

One assay deals with MDR-sup fission yeast. As to the kind of experiment: Phenotypic assay of microtubule organization in MDR-sup strain expressing GFP-atb2. The format is cell-based, Schizosaccharomyces pombe. To be noted: 5 µM compound for 3 h, living cells. The method, then: We have previously screened a collection of 10 371 small molecules to identify compounds that inhibit the growth of a multiple-drug-sensitive fission yeast strain (MDR-sup). We selected 248 compounds (2.4% of the total) that inhibited fission yeast cell growth rate by at least 50% (figure 1a) and subsequently conducted a phenotypic screen of these to identify drugs that affect microtubule organization (figure 1b). After the MDR-sup cells were treated with 5 µM of each compound for 3 h, microtubules were monitored using GFP tagged α-tubulin Atb2 and live-cell fluorescence microscopy. In untreated interphase cells, microtubules form long cytoplasmic arrays that run parallel to the long cellular axis, and in mitotic cells, microtubules form a bipolar spindle in the nucleus and the cytoplasmic microtubules disappear (figure 1c(i), arrow). […] This screen identified 34 compounds that induced cytological phenotypes indicative of defects in microtubule organization or function.
Figure 1. Phenotypic screening in MDR-sup fission yeast (a). Growth assay screening using MDR-sup strain. The optical density was measured with 20 µM of each compound and 248 compounds that gave at least 50% growth inhibition were used for further phenotyping marked by the red lines. Growth was normalized to DMSO-treated cells. (b) Schematic representation of the screening workflow. (c) Examples of the phenotypic assay using L1, P2 and B8 in the MDR-sup strain expressing GFP-atb2 (tubulin) are shown. Cells were incubated in 5 µM compound for 3 h and atb2 signals were detected in living cells. (i) Cells in absence of any compound. In interphase cells, α-tubulin Atb2 protein was detected in the nucleus and interphase microtubules, while mitotic spindles were detected in mitotic cells (arrows). (ii) In the presence of L1, microtubules were depolymerized and tubulin signals were detected distributed throughout the nucleus. (iii) In the presence of P2, short spindles were detected but anaphase spindles were not. (iv) In the presence of B8, interphase microtubules were not detected, while, dots were detected. […]

Assay [1] addresses T1, porcine brain tubulin heterodimer (Sus scrofa, UniProt P02550+P02554).
T1 construct: highly purified porcine brain tubulin heterodimer; purchased Cytoskeleton T240 (kit BK011P); host or cells: porcine brain tissue
Put plainly: In vitro tubulin polymerization assay. The format is biochemical. To be noted: IC50 of tubulin polymerization. The protocol: To determine whether the 12 compounds affected mitotic spindle organization by directly interfering with tubulin polymerization, we performed in vitro tubulin polymerization assays. […] Tubulin polymerization was monitored every 1 min by measuring fluorescence absorbance at 340 nm for 1 h.
Figure 3. […] Tubulin was incubated with 5 µM of the compounds and DMSO for 60 min at 37°C. The fluorescence increase was monitored every minute at 340 nm. […] (b). […] Nocodazole (NOC) was used as the control. (c). […] (d) The same experiment as (c) but carried out at a different time.
The Tubulin Polymerization HTS Assay Kit (Cytoskeleton, BK011P) was used according to the manufacturer's instructions. All components were added into a 96-well microtiter plate (Corning Costar, cat. no. 3686), then the tubulin reaction mixture was quickly added to the wells, and tubulin polymerization was initiated and monitored every 1 min at 37°C for 1 h by recording fluorescence of excitation wavelength at 340 nm and emission at 450 nm. The tubulin reaction mixture was composed of 80 mM PIPES (pH 6.9), and 1 mM MgCl2, 1 mM EGTA, 1 mM GTP and 2 mg ml^−1 of highly purified porcine brain tubulin heterodimer (Cytoskeleton, cat. no. T240).

The target in assay [2] is T2, tubulin (colchicine-binding site) (Sus scrofa, UniProt P02550+P02554).
T2 construct: purchased Cytoskeleton, Inc
T2 sequence (P02554 whole entry): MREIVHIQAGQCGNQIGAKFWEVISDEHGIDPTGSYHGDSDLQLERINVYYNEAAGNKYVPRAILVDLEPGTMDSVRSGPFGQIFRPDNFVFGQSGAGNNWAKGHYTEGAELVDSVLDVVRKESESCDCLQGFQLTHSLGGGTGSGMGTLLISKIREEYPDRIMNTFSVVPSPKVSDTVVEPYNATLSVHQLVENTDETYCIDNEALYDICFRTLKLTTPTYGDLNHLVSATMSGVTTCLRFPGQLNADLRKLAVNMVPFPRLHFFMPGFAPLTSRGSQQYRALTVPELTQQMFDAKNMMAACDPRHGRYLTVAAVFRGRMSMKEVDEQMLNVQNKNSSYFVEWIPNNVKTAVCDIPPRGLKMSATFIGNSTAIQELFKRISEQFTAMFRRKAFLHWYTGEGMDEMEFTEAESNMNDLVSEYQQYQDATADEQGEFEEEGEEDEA
T2 sequence (P02550 whole entry): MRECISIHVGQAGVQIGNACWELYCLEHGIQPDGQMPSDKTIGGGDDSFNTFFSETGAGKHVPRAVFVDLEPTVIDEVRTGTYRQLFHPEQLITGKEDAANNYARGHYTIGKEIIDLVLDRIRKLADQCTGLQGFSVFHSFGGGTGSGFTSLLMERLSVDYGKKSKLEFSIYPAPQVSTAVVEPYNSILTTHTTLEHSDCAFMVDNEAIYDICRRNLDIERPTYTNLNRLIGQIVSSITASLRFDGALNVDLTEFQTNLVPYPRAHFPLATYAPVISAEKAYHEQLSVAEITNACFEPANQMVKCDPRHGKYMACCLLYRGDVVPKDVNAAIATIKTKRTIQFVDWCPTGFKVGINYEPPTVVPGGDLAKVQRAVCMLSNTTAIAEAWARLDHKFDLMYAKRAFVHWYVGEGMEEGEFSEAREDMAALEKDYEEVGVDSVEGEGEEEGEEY
Put plainly: Fluorescence-based colchicine displacement assay. To be noted: for fluorescence of the colchicine-tubulin complex: 2 µM tubulin + 2 µM colchicine set 100%. The protocol:
Figure 6. […] Each value represents the mean ± s.e.m. of three independent experiments.
Reaction mixtures were excited at 380 nm and the emission was measured at 438 nm. Values were exported as Excel files and graphs were generated in Prism V9 GraphPad.

Assay [3] deals with BT549, CAL51 and MB-157 breast cancer cell lines. Put plainly: Viability dose-response in breast cancer cell lines. Format: cell-based. To be noted: Homo sapiens, 96 h; range over three breast cancer cell lines; 4 days of treatment. The method, then: (§1) The sensitivity of the inhibitors L1, J3, A15 and M2 were evaluated in three breast cancer cell lines, (BT549, CAL51 and MB-157) and a non-cancer cell line from the human mammary gland, MCF-10A (figure 8). Drug sensitivity was determined by culturing breast cancer cell lines (black lines) and the non-cancer cell line (red line) with a range of concentrations of each compound, and viability was measured after 4 days of treatment in triplicate.
(§2) Figure 8. Dose–response curves in three cancer cell lines (BT549, CAL51 and MB-157) are shown in black and non-cancer cell line; MCF-10A is shown in red. They were subjected to a dose–response matrix of the tubulin inhibitor, L1, A15, M2 and J3, respectively. Viability relative to the vehicle control was measured […] after treatment. Mean ± s.e.m. for n = 3 experiments is shown.
(§3) Cells were plated in 384-well plates at a density of 800 cells per well in 22.5 µl of media. After 24 h, 2.5 µl drug was diluted in media and was added to each well. Following 5 days of incubation, viability was assessed using CellTiter-Glo (Promega) according to the manufacture's protocol. Luminescence in each well was measured using a Synergy Neo2 plate reader (BioTek).

The test system of the next assay is MCF-10A. As to the kind of experiment: Viability dose-response in non-cancer mammary cell line. Format: cell-based, human. The method, then:
as §1, §2, §3

T1 sequence (P02554 whole entry): as the sequence (P02554 whole entry) above
T1 sequence (P02550 whole entry): as the sequence (P02550 whole entry) above

For orientation: IC50 means the midpoint of a concentration-inhibition curve. As for `COc1cc(Br)cc2c1OC(c1ccc3c(c1)OCO3)C([N+](=O)[O-])=C2` (stereo not drawn) [L1], in the assay on MDR-sup fission yeast, the “microtubule phenotype (GFP-atb2 tubulin signal)” value was “microtubules are undetectable, and α-tubulin accumulates in the nucleus”. Besides, the IC50 is 470 nM in assay [1] (figure 3c, 37°C, 1 h); 460 nM in assay [1] (figure 3d, same experiment carried out at a different time); 2400 to 3100 nM in assay [3]; 9600 nM in the assay on MCF-10A (Homo sapiens, 96 h, MCF-10A, 4 days of treatment). In addition, the “fluorescence of the colchicine-tubulin complex” value amounted to 87% in assay [2] (5 µM L1) and 71% in assay [2] (10 µM L1). In addition, the colchicine-tubulin interaction entry in assay [2] (50 µM L1) was “abolished the interaction between colchicine and tubulin complex completely”. Moreover, in the assay on MCF-10A (ratio non-cancer / cancer lines), the “IC50 in MCF-10A relative to the three breast cancer cell lines” value is recorded as “more than threefold higher”.
